The source of these data is PubChem BioAssay (NCI).

Structures are written as SMILES.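 Interpolation was linear, between the two tested concentrations surrounding the appropriate level; five concentrations were tested over 48 hours in 96-well plates. TGI is the concentration that stops growth completely.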

What all share (assay): NCI tumour cell line growth inhibition, 48 h
Test [1] relates to SF-295 CNS.
For test [2], the system named is HCT-15 colon.
The subject of test [3] is SNB-75 CNS.
The test system of test [4] is SK-MEL-5 melanoma.
For test [5], the system named is COLO 205 colon.
The test system of test [6] is CAKI-1 renal.
Test [7] deals with MDA-MB-231 breast.
The test system of test [8] is T-47D breast.
In test [9] the test system is PC-3 prostate.
Test [10] deals with MDA-N.

In the case of `O=c1cc(-c2c[nH]c3ccccc23)[nH]c2cc3c(cc12)OCO3`, the TGI was more than 100 µM in test [1]; more than 100 µM in [2]; 72.6 µM in test [3]; more than 100 µM in test [4]; more than 100 µM in test [5].
`CCC/C=C1\CCC(CN(C)C)C1=O` (configuration not stated): the TGI in [1] was more than 55.3 µM; in [2], 6.68 µM; in test [3], 32.9 µM; in [6] it was 4.59 µM; in test [4], 32.3 µM; in test [5], 10.7 µM.
For `Cc1ccc2c(=O)c(C(=O)Nn3c(C)csc3=S)c[nH]c2n1`, the TGI in test [7], in [1], in test [2], in [8], in [6] and in test [9] was more than 100 µM throughout. Besides, the TGI in test [4], in test [5] and in test [10] was more than 100 µM throughout.
Regarding `COP(=O)(OC)C(NC(=O)C(F)(F)F)(c1ccccc1)C(F)(F)F` (configuration not stated), the TGI in [1], in test [2], in test [3], in [6], in [4] and in test [5] was more than 100 µM throughout.
With `O=C(NC1CCCCC1)c1cc2ccccc2cc1O`, the TGI was more than 100 µM in test [7]; more than 100 µM in test [1]; 65.1 µM in test [2]; more than 100 µM in test [3]; more than 100 µM in test [8]; more than 100 µM in test [6]. Besides, the TGI in test [9] was 99 µM; in test [4], 47.9 µM; in test [5] it was more than 100 µM.
As for `CCCCCc1nnc(NS(=O)(=O)c2ccc(NC(=O)OCC(C)C)cc2)s1`, the TGI in test [7], in test [1], in test [2], in test [8], in test [6] and in [9] was more than 100 µM each time. For the same compound, the TGI was 63.7 µM in test [4], 41.6 µM in test [5] and more than 100 µM in test [10].
As for `C(/Cc1ccc2c(c1)OCO2)=N\NC1=NCCN1`, the TGI in [7], in [1], in [2], in [3], in test [8] and in test [9] was more than 100 µM each time. Further, the TGI in test [4] and in test [5] was more than 100 µM each time.
Regarding `CCOP(=O)(OCC)C(c1ccccc1)N(C(=O)NC(F)(F)F)c1cccc(F)c1` (configuration not stated), the TGI in [7], in test [1], in [2], in [3], in test [6] and in test [9] was more than 100 µM throughout. For the same compound, the TGI in [4], in test [5] and in test [10] was more than 100 µM in each case.
With `COC(=O)[C@H]1NC(=O)CCSSC1(C)C`, the TGI in [7], in [1], in test [2], in [8], in test [6] and in test [9] was more than 100 µM in each case. The TGI in [4] and in test [5] was more than 100 µM each time.
Take `Cc1ccc(-n2cc(-c3ccc(Cl)cc3)c3c(N/N=C4\SCC(=O)N4C)ncnc32)cc1`: the TGI in test [7] was 23.8 µM; in test [1], 9.37 µM; in test [2] it was more than 100 µM; in [8], more than 100 µM; in [6] it was 32.3 µM; in test [9], 10.9 µM. Further, the TGI turned out to be 15.5 µM in test [4], 37.5 µM in test [5] and 63.4 µM in test [10].
With `O=C1C=C2SC3C[C@@]24CC1[N+]1=c2c4c(c(O)c4c2=C(C=N4)CC1)N3`, the TGI in test [1] worked out at 11.6 µM; in test [2] it was 13.7 µM; in [3] it was 12.2 µM; in [6] it was 7.99 µM; in test [4], 3.44 µM; in test [5] it was 3.57 µM.
For `C[n+]1c(-c2ccc(/C=N/Nc3ccnc(N/N=C/c4ccc(-c5cn6ccsc6[n+]5C)cc4)n3)cc2)cn2ccsc21`, the TGI is more than 100 µM in test [7]; more than 100 µM in test [2]; 68.3 µM in test [3]; 66.6 µM in test [6]; 79.9 µM in [9]; 54.5 µM in test [4]. Further, the TGI was 87.9 µM in test [5] and 38.6 µM in [10].
`O=c1[nH]c(=O)n(C2CC(O)C(CO)O2)cc1NN=NCCCc1ccccc1` (configuration not stated): the TGI in test [7], in test [1], in [2], in test [8], in test [6] and in [9] was more than 100 µM in each case. The TGI in [4], in [5] and in test [10] was more than 100 µM throughout.
As to `Cc1ccc(C(=O)N(Cc2ccccc2)Cc2ccccc2)cc1N=NN(C)C`, the TGI was 78 µM in [7]; more than 81.5 µM in [1]; more than 90.1 µM in test [2]; 75 µM in test [8]; more than 100 µM in [6]; more than 100 µM in test [9]. In addition, the TGI is 27.3 µM in test [4], 44.7 µM in test [5] and more than 100 µM in test [10].
As for `O=C1C=CC(=C(c2ccc(O)cc2)c2ccc(O)cc2)C=C1`, the TGI in test [1] was 25.1 µM; in test [2], 28.6 µM; in test [3], 10.2 µM; in test [6], 32.7 µM; in test [4], 19.8 µM; in test [5], 32.4 µM.
On to `CCCC(C)n1c(C)nc2c1C(=O)c1ccccc1C2=O` (configuration not stated), for which the TGI in [1] was more than 100 µM; in test [2], more than 100 µM; in test [3], more than 100 µM; in test [4], 30 µM; in test [5] it was more than 100 µM.
Consider `COc1cc(CNc2cnc3cc(N)ccc3n2)cc(OC)c1OC`, for which the TGI in test [1] is 80.8 µM; in [2], more than 100 µM; in test [3] it was more than 100 µM; in [6] it was more than 100 µM; in test [4] it was more than 100 µM; in test [5], 62.2 µM.
